# Data from article PMC7415619 (European journal of medicinal chemistry, 2020).
# pIC50, pKi: −log10 of the molar value. Where two headings read alike, the source gives them in different places.
# Columns and labels:
# FAAL28 = FAAL28 (Mycobacterium tuberculosis, UniProt P9WQ59); assay: Coupled continuous enzyme kinetic assay; format: biochemical; conditions: for Ki^app FAAL28: apparent Ki, Morrison equation, 33 μM tetradecanoic acid
# Mtb H37Rv = assay: Minimum inhibitory concentration, broth microdilution, whole-cell activity; format: cell-based, Mycobacterium tuberculosis; conditions: for MIC: Mycobacterium tuberculosis, H37RV; for MIC GAST: Mtb H37Rv, GAST medium, MIC = >99% inhibition of cell growth
# FACL19 = FACL19 (Mycobacterium tuberculosis, UniProt P9WQ51); assay: Coupled continuous enzyme kinetic assay; format: biochemical; conditions: for Ki^app FACL19: apparent Ki, Morrison equation, 250 μM dodecanoic acid
# [1] = tested on: MDR-TB and XDR-TB strains; assay: microbe, parasite or virus in culture; format: cell-based; conditions: Mycobacterium tuberculosis
# Mtb = conditions: cited from earlier work
# Vero cells = assay: Cytotoxicity, MTT assay; conditions: read-out: Cytotox IC50, Vero monkey cells, 72 h
# [2] = read-out: MIC 7H9, Mtb H37Rv, 7H9 medium
# [3] = read-out: MIC 7H9/palmitate, Mtb H37Rv, 7H9/palmitate medium
# [4] = read-out: MICs against MDR-TB and XDR-TB panel in both media
# [5] = read-out: MICs against MDR and XDR Mtb panel in 7H9 medium
# Chain of FACL19 (P9WQ51 whole entry): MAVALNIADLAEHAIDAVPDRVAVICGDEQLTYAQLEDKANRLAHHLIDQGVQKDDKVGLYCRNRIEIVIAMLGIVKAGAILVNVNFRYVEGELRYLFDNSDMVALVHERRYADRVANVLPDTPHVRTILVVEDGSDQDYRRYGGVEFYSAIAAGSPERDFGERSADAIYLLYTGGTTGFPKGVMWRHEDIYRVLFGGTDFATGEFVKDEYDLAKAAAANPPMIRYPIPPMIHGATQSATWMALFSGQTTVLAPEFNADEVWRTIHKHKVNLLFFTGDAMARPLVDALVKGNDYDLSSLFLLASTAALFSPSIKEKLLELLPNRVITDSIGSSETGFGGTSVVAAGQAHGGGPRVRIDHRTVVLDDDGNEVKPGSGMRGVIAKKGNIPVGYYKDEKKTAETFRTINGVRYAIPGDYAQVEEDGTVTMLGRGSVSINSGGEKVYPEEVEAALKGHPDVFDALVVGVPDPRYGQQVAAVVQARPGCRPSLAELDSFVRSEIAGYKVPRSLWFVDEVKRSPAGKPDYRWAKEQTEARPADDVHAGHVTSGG
# Chain of FAAL28 (P9WQ59 whole entry): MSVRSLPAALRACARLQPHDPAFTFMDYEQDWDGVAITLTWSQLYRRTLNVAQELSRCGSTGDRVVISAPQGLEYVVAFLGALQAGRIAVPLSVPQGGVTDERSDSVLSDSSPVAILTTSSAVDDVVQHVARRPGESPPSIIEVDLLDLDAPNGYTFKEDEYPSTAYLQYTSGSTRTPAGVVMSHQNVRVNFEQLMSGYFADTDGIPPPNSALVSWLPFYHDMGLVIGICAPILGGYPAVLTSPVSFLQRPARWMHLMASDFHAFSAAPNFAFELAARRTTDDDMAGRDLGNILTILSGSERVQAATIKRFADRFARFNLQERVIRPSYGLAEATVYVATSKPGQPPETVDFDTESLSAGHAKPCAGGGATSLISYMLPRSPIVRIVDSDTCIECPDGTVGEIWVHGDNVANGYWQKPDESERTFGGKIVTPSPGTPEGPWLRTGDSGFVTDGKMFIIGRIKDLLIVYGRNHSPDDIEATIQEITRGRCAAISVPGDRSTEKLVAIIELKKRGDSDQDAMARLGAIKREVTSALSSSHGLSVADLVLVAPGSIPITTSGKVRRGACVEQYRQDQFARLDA
smiles,measurement,setting,value
"Nc1ncnc2c1ncn2[C@@H]1O[C@H](COS(=O)(=O)NC(=O)CCCCCCCCCOc2ccccc2)[C@@H](O)[C@H]1O [Compound 38, 5′-O-[N-(10-Phenoxydecanoyl)sulfamoyl]adenosine]",fold decrease in potency for FAAL28 relative to 32,FAAL28,10 fold
"CCCCCCCCCC[C@H](C)C(=O)NS(=O)(=O)OC[C@H]1O[C@@H](n2cnc3c(N)ncnc32)[C@H](O)[C@@H]1O [Compound 34, 5′-O-{N-[(S)-2-Methylodecanoyl]sulfamoyl}adenosine]",pKi,FAAL28,< 4.00
same,MIC,Mtb H37Rv; [2],> 100 µM
same,MIC,Mtb H37Rv; [3],> 100 µM
same,pKi,FACL19,< 4.00
"Nc1ncnc2c1ncn2[C@@H]1O[C@H](COS(=O)(=O)NC(=O)CCCCCCCCCCC(=O)O)[C@@H](O)[C@H]1O [Compound 31, 5′-O-[N-(11-Carboxyundecanoyl)sulfamoyl]adenosine]",pKi,FAAL28,< 4.00
same,MIC,Mtb H37Rv; [2],> 100 µM
same,MIC,Mtb H37Rv; [3],> 100 µM
same,pKi,FACL19,< 4.00
"CCCCCCCCCC[C@@H](C)C(=O)NS(=O)(=O)OC[C@H]1O[C@@H](n2cnc3c(N)ncnc32)[C@H](O)[C@@H]1O [Compound 33, 5′-O-{N-[(R)-2-Methyldodecanoyl]sulfamoyl}adenosine]",pKi,FAAL28,< 4.00
same,MIC,Mtb H37Rv; [2],> 100 µM
same,MIC,Mtb H37Rv; [3],> 100 µM
same,pKi,FACL19,< 4.00
"Nc1ncnc2c1ncn2[C@@H]1O[C@H](COS(=O)(=O)NC(=O)CCCCCCCCCCOc2ccccc2)[C@@H](O)[C@H]1O [Compound 32, 5′-O-[N-(11-Phenoxyundecanoyl)sulfamoyl]adenosine]",selectivity for FAAL28 over FACL19,FAAL28; ratio of apparent Ki values,greater than 142 fold
same,Ki^app FACL19,FACL19,completely inactive
same,MIC,[1]; [4],3.13 to 12.5 µM
"CCCCCCCCCCCC(=O)NS(=O)(=O)OC[C@H]1O[C@@H](n2cnc3c(N)ncnc32)[C@H](O)[C@@H]1O [Compound 9, 5′-O-[N-(Dodecanoyl)sulfamoyl]adenosine]",MIC GAST,Mtb H37Rv,0.19 to 0.39 µM
same,MIC against Mtb,Mtb,100 µM
same,MIC,[1]; [5],3.13 to 12.5 µM
"CCCCCCCCCOCC(=O)NS(=O)(=O)OC[C@H]1O[C@@H](n2cnc3c(N)ncnc32)[C@H](O)[C@@H]1O [Compound 36, 5′-O-[N-2-(Nonyloxy)acetylsulfamoyl]adenosine]",MIC GAST,Mtb H37Rv,0.098 to 0.19 µM
same,MIC,Mtb H37Rv; [3],25 to 50 µM
"CCCCCCCCC/C=C/C(=O)NS(=O)(=O)OC[C@H]1O[C@@H](n2cnc3c(N)ncnc32)[C@H](O)[C@@H]1O [Compound 23, 5′-O-{N-[(E)-Dodec-2-enoyl]sulfamoyl}adenosine]",MIC,[1]; [4],3.13 to 12.5 µM
"Nc1ncnc2c1ncn2[C@@H]1O[C@H](CNS(=O)(=O)OCCCCCCCCCCCOc2ccccc2)[C@@H](O)[C@H]1O [Compound 93, 5′-Deoxy-5′-{[(11-phenoxyundecyloxy)sulfonyl]amino}adenosine]",Ki^app FAAL28,FAAL28,ablated biochemical inhibition
"CCCCCCCCCCCCCCCC(=O)NS(=O)(=O)OC[C@H]1O[C@@H](n2cnc3c(N)ncnc32)[C@H](O)[C@@H]1O [Compound 18, 5′-O-[N-(Palmitoyl)sulfamoyl]adenosine]",pKi,FACL19,5.49
"[N-]=[N+]=NCCCCCCCCCCCC(=O)NS(=O)(=O)OC[C@H]1O[C@@H](n2cnc3c(N)ncnc32)[C@H](O)[C@@H]1O [Compound 28, 5′-O-[N-(12-Azidododecanoyl)sulfamoyl]adenosine]",MIC GAST,Mtb H37Rv,0.098 to 3.13 µM
same,MIC,Mtb H37Rv; [2],12.5 to 25 µM
"Nc1ncnc2c1ncn2[C@@H]1O[C@H](COS(=O)(=O)NCCCCCCCCCCCOc2ccccc2)[C@@H](O)[C@H]1O [Compound 89, 5′-O-[N-(11-Phenoxyundecyl)sulfamoyl]adenosine]",Ki^app FAAL28,FAAL28,ablated biochemical inhibition
"CCCCC/C=C\CCCC(=O)NS(=O)(=O)OC[C@H]1O[C@@H](n2cnc3c(N)ncnc32)[C@H](O)[C@@H]1O [Compound 25, 5′-O-{N-[(Z)-Undec-5-enoyl]sulfamoyl}adenosine]",pKi,FAAL28,< 4.00
same,MIC,Mtb H37Rv; [2],100 µM
same,MIC,Mtb H37Rv; [3],100 µM
same,pKi,FACL19,< 4.00
"COC(=O)CCCCCCCCCCC(=O)NS(=O)(=O)OC[C@H]1O[C@@H](n2cnc3c(N)ncnc32)[C@H](O)[C@@H]1O [Compound 30, 5′-O-[N-(12-Methoxy-12-oxododecanoyl)sulfamoyl]adenosine]",pKi,FAAL28,< 4.00
same,MIC GAST,Mtb H37Rv,3.13 µM
same,MIC,Mtb H37Rv; [2],100 µM
same,MIC,Mtb H37Rv; [3],> 100 µM
same,pKi,FACL19,< 4.00
"CCCCCCCCCCCCCCCCCCCC(=O)NS(=O)(=O)OC[C@H]1O[C@@H](n2cnc3c(N)ncnc32)[C@H](O)[C@@H]1O [Compound 20, 5′-O-[N-(Icosanoyl)sulfamoyl]adenosine]",pIC50,Vero cells,7.00
"CCCCCCCCCCCCCC(=O)NS(=O)(=O)OC[C@H]1O[C@@H](n2cnc3c(N)ncnc32)[C@H](O)[C@@H]1O [Compound 17, 5′-O-[N-(Tetradecanoyl)sulfamoyl]adenosine]",MIC,[1]; [5],3.13 to 12.5 µM
"NCCCCCCCCCCCC(=O)NS(=O)(=O)OC[C@H]1O[C@@H](n2cnc3c(N)ncnc32)[C@H](O)[C@@H]1O [Compound 29, 5′-O-[N-(12-Aminododecanoyl)sulfamoyl]adenosine]",MIC,Mtb H37Rv; [3],12.5 to 25 µM
"Nc1ncnc2c1ncn2[C@@H]1O[C@H](CNS(=O)(=O)NC(=O)CCCCCCCCCCOc2ccccc2)[C@@H](O)[C@H]1O [Compound 83, 5′-deoxy-5′-{N-[(11-Phenoxyundecanoyl)sulfamoyl]amino} adenosine]",fold decrease in potency for FAAL28 relative to 32,FAAL28,4 fold
same,Ki^app FACL19,FACL19,no inhibition
"CCCCCCCCCCC(C)(C)C(=O)NS(=O)(=O)OC[C@H]1O[C@@H](n2cnc3c(N)ncnc32)[C@H](O)[C@@H]1O [Compound 35, 5′-O-[N-(2,2-Dimethyldodecanoyl)sulfamoyl]adenosine]",pKi,FAAL28,< 4.00
same,MIC,Mtb H37Rv; [2],> 100 µM
same,MIC,Mtb H37Rv; [3],> 100 µM
same,pKi,FACL19,4.26
"C[C@H](CCC(=O)NS(=O)(=O)OC[C@H]1O[C@@H](n2cnc3c(N)ncnc32)[C@H](O)[C@@H]1O)[C@H]1CC[C@H]2[C@@H]3CC[C@@H]4C[C@H](O)CC[C@]4(C)[C@H]3CC[C@]12C [Compound 11, reference compound]",MIC against Mtb,Mtb,50 µM
"CCCCCCCCC[C@@H]1C[C@@H]1C(=O)NS(=O)(=O)OC[C@H]1O[C@@H](n2cnc3c(N)ncnc32)[C@H](O)[C@@H]1O [Compound 26, 5′-O-{N-[(1S,2R)-2-Nonylcyclopropanecarbonyl]sulfamoyl} adenosine]",Ki^app FAAL28,FAAL28,weak inhibition
